Source: US20110288082A1, “METHODS AND COMPOSITIONS FOR INHIBITION OF THE TRANSITIONAL ENDOPLASMIC RETICULUM ATPASE” (priority 2010, published 2011)
Like-named read-outs stand apart in the source and are kept apart here.

What was measured:
p97 = p97 (Homo sapiens, UniProt P55072); experiment: p97 ATPase assay (Kinase Glo Plus; biomol green for compounds that interfere with luciferase); format: biochemical
Protocol: Assay Buffer (20 μL of 2.5× concentration, where 1×=50 mM Tris pH 7.4, 20 mM MgCl2, 1 mM EDTA, 0.5 mM TCEP) was dispensed into each well of a 96 well plate. Purified p97 (25 μL of 50 μM) was diluted in 975 μL, of 1× Assay Buffer and 10 μL was dispensed in each well. Test compound (10 μL) or 5% DMSO (10 μL) was then added to each well and the plate was incubated at room temperature for 10 min. The ATPase assay was carried out by adding to each well 10 μL of 500 μM ATP (pH 7.5), incubating at room temperature for 60 min, and then adding 50 μL Kinase Glo Plus reagent (Promega) followed by a final 10 min incubation at room temperature in the dark. Luminescence was read on an Analyst AD (Molecular Devices). Compounds were assayed at a range of concentrations (0, 0.048, 0.24, 1.2, 6, 30 μM) in triplicate. The percent of remaining activity for each reaction was calculated using the following mathematical expression: ((Test Compound-High Control)/(Low Control-High Control))*100. Test_Compound is defined as wells containing test compound, Low_Control is defined as wells containing DMSO, High_Control is defined as wells containing no p97 protein. […] The result was expressed as mean +/− standard error. For assays with Myriad 12 and 19, 100 μL of biomol green reagent (Enzo Life Sciences) was added to each well instead of kinase Glo Plus (Promega) and absorbance at 630 nm was measured. This was done because these compounds interfered with luciferase activity. […]

[1] = test system: p97-dependent Ub^G76V-GFP degradation in HeLa cells; experiment: Ub^G76V-GFP degradation (turn-over) assay; format: cell-based, human; settings: Homo sapiens, HeLa
Protocol: Ub^G76V-GFP Degradation Assay
Two GFP images with 100 ms exposure time per well were acquired and the average GFP intensity per area of a HeLa cell was determined by using MetaXpress software. Mean GFP intensity of 300-500 cells was calculated using Excel. Normalized GFP intensity was calculated using the following formula: (Test compound−Background)/(Basal GFP intensity—Background). Where: Test compound is defined as Mean GFP intensity of Ub^G76V-GFP-expressing cells treated with the test compound. Background is defined as background GFP intensity of HeLa cells. Basal GFP intensity is defined as mean GFP intensity of Ub^G76V-GFP-expressing cells treated with DMSO. […] The percent of remaining k for each compound is calculated using the following formula: (Test compound/DMSO control)*100. Where: Test_compound is defined as k determined from wells containing test compound, DMSO control is defined as k determined from wells containing DMSO.

[2] = read-out: IC50 (μM) Ub^G76V-GFP turn over, p97-dependent Ub^G76V-GFP degradation turn-over assay
[3] = purified p97, ATP, 60 min room temperature, mean +/- standard error
[4] = read-out: IC50 (μM) Ub^G76V-GFP turn over, Ub^G76V-GFP-expressing HeLa cells, degradation rate constant k from 90 to 180 min, mean +/- standard error

Chain of p97 (P55072 2-806 limits assumed): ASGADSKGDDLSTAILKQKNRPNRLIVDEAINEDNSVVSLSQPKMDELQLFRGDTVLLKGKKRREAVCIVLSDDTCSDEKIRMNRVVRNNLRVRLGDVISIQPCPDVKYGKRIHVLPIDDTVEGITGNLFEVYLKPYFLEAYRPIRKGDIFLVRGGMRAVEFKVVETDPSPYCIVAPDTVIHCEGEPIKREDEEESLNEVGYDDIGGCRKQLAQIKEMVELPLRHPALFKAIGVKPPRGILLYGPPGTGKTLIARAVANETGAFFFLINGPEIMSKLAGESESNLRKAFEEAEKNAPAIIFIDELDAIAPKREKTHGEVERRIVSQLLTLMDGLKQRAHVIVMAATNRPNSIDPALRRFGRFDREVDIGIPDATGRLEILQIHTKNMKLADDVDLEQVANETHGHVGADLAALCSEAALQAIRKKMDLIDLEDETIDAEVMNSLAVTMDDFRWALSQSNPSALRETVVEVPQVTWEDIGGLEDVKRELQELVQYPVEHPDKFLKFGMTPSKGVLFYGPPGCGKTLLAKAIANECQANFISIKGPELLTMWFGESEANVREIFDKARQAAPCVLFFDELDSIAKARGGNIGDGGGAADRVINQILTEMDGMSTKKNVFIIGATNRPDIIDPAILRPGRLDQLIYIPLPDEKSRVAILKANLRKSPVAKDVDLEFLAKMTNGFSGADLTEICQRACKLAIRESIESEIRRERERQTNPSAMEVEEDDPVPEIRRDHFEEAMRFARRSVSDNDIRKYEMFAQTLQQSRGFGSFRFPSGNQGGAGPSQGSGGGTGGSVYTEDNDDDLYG

Structure (SMILES) | IC50 (p97; p97 ATPase assay) | IC50 [1, 2] | IC50 (p97; [3]) | IC50 [1, 4] | IC50 ([1]; read-out: IC50 (μM) Ub^G76V-GFP turn over)
Brc1ccc2c(NCc3ccccc3)nc(NCc3ccccc3)nc2c1 [VI-16] | 22 ± 4 µM | 10 ± 2 µM | – | – | –
c1ccc(CNc2nc(N3CCCc4ccccc43)nc3ccccc23)cc1 [VII-1] | – | – | 4.4 ± 1.8 µM | 10 ± 2 µM | –
c1ccc(CNc2nc(N3CCc4ccccc43)nc3ccccc23)cc1 [VII-2] | – | – | 2 ± 0.5 µM | 11 ± 3 µM | –
c1ccc(CNc2nc(N3CCOc4ccccc43)nc3ccccc23)cc1 [VII-3] | – | – | 0.6 ± 0.2 µM | 7 ± 1.9 µM | –
c1ccc(CNc2nc(N3CCNc4ccccc43)nc3ccccc23)cc1 [VII-4] | – | – | 0.4 ± 0.05 µM | 6.3 ± 1 µM | –
COc1cccc2c(NCc3ccccc3)nc(N3CCNc4ccccc43)nc12 [VII-5] | – | – | 0.9 ± 0.1 µM | 3.7 ± 0.2 µM | –
COc1cccc2c(NCc3ccccc3)nc(N3CCOc4ccccc43)nc12 [VII-6] | – | – | 0.2 ± 0.02 µM | 3.3 ± 0.4 µM | –
Oc1cccc2c(NCc3ccccc3)nc(N3CCOc4ccccc43)nc12 [VII-7] | – | – | 1.2 ± 0.3 µM | 7.7 ± 1.7 µM | –
c1ccc(CNc2nc(N3CCOc4ccccc43)nc3c(-c4ccccc4)cccc23)cc1 [VII-8] | – | – | 3.5 ± 0.6 µM | 5 ± 0.9 µM | –
OCCOc1cccc2c(NCc3ccccc3)nc(N3CCOc4ccccc43)nc12 [VII-9] | – | – | 0.17 ± 0.05 µM | 3.8 ± 0.8 µM | –
CCN(CC)CCOc1cccc2c(NCc3ccccc3)nc(N3CCOc4ccccc43)nc12 [VII-10] | – | – | 0.4 ± 0.08 µM | 5.3 ± 0.6 µM | –
COc1ccc(-c2cccc3c(NCc4ccccc4)nc(N4CCOc5ccccc54)nc23)cc1 [VII-11] | – | – | 1.1 ± 0.1 µM | 9 ± 1 µM | –
COc1cccc2c(NCc3ccccc3)nc(N3CCN(C)c4ccccc43)nc12 [VII-12] | – | – | 3.1 ± 0.5 µM | 7.8 ± 0.7 µM | –
COc1cccc2c(NCc3ccccc3)nc(N3CCN(C(C)=O)c4ccccc43)nc12 [VII-13] | – | – | 2.7 ± 0.6 µM | 8 ± 1 µM | –
COCCOc1cccc2c(NCc3ccccc3)nc(N3CCOc4ccccc43)nc12 [VII-14] | – | – | 0.6 ± 0.03 µM | 6.5 ± 0.7 µM | –
CCCCc1cccc2c(NCc3ccccc3)nc(N3CCOc4ccccc43)nc12 [VII-15] | 2.63 ± 0.7 µM | 28 ± 3 µM | – | – | –
COc1cccc2c(NCc3ccccc3)nc(-n3c(N)nc4ccccc43)nc12 [VII-16] | – | – | 0.11 ± 0.03 µM | 0.9 ± 0.1 µM | –
COc1cccc2c(NCc3ccccc3)nc(-n3c(=O)oc4ccccc43)nc12 [VII-17] | – | – | 0.11 ± 0.03 µM | 5 ± 1 µM | –
c1ccc(CNc2nc(N3CCOc4ccccc43)nc3c2CCCC3)cc1 [VIII] | – | – | 0.11 ± 0.03 µM | 3.5 ± 0.4 µM | –
COc1cccc2c(NCc3ccccc3)nc(-n3cnc4ccccc43)nc12 [XI-1] | – | – | 3.3 ± 1.1 µM | 78 ± 45 µM | –
COc1cccc2c(NCc3ccccc3)nc(N3CCOCC3)nc12 [XI-2] | 31 ± 7 µM | 47 ± 9 µM | – | – | –

Structure (SMILES) | IC50 (p97; p97 ATPase assay) | IC50 [1, 2] | IC50 (p97; [3]) | IC50 [1, 4] | IC50 ([1]; read-out: IC50 (μM) Ub^G76V-GFP turn over)
COc1cccc2c(NCc3ccccc3)nc(NC(N)=O)nc12 [XI-3] | 49 ± 10 µM | 108 ± 31 µM | – | – | –
COc1cccc2c(NCc3ccccc3)nc(N3CCN(C)CC3)nc12 [XI-4] | > 30 µM | 45 ± 18 µM | – | – | –
COc1cccc2c(NCc3ccccc3)nc(Nc3nc4ccccc4s3)nc12 [XI-5] | – | – | 0.5 ± 0.2 µM | 14 ± 2 µM | –
COc1cccc2c(NCc3ccccc3)nc(Nc3nc4ccccc4n3C)nc12 [XI-6] | – | – | 0.3 ± 0.07 µM | 7.8 ± 1.2 µM | –
COc1cccc2c(NCc3ccccc3)nc(NC(=O)N(C)C)nc12 [XI-7] | 60 ± 23 µM | 37 ± 7 µM | – | – | –
COc1cccc2c(NCc3ccccc3)nc(N3CCc4ccccc4C3)nc12 [XI-8] | – | – | 15 ± 3 µM | 7 ± 1.3 µM | –
COc1cccc2c(NCc3ccccc3)nc(N(C)c3ccccc3)nc12 [XI-9] | > 30 µM | 9.2 ± 1.2 µM | – | – | –
COc1cccc2c(NCc3ccccc3)nc(Nc3ccccc3O)nc12 [XI-10] | – | – | 2.6 ± 0.4 µM | 2.8 ± 0.5 µM | –
COc1cccc2c(NCc3ccccc3)nc(NC(C)c3ccccc3)nc12 (stereo not shown) [XI-11] | – | – | 12 ± 5 µM | 2.1 ± 0.7 µM | –
COc1cccc2c(NCc3ccccc3)nc(N(C)Cc3ccccc3)nc12 [XI-12] | – | – | 7 ± 3 µM | > 20 µM | –
COc1cccc2c(NCc3ccccc3)nc(NCC3CCCCC3)nc12 [XI-13] | – | – | 5.4 ± 0.9 µM | 4.2 ± 1 µM | –
COc1cccc2c(NCc3ccccc3)nc(NCc3cncs3)nc12 [XI-15] | – | – | 11 ± 1 µM | 10 ± 3 µM | –
COc1cccc2c(NCc3ccccc3)nc(Nc3cc(C)cc(F)c3)nc12 [XI-18] | – | – | 1.5 ± 0.2 µM | 7.1 ± 0.5 µM | –
COc1cccc2c(NCc3ccccc3)nc(N3CCN(C(C)=O)CC3)nc12 [XI-19] | > 30 µM | > 20 µM | – | – | –
COc1cccc2c(NCc3cncs3)nc(N3CCOc4ccccc43)nc12 [XII-1] | 38 ± 7 µM | 20 ± 3 µM | – | – | –
COc1cccc2c(NCc3cccc(N(C)C)c3)nc(N3CCOc4ccccc43)nc12 [XII-2] | 52 ± 10 µM | 19 ± 4 µM | – | – | –
COc1cccc2c(NCc3ccc(F)cc3)nc(N3CCOc4ccccc43)nc12 [XII-4] | – | – | 1.9 ± 0.4 µM | 3.7 ± 0.6 µM | –
COc1cccc2c(NCc3cccs3)nc(N3CCOc4ccccc43)nc12 [XII-5] | – | – | 1.2 ± 0.2 µM | 3 ± 0.6 µM | –
COc1cccc2c(NCC3CCCCC3)nc(N3CCOc4ccccc43)nc12 [XII-6] | – | – | 7.4 ± 0.9 µM | 8.2 ± 1 µM | –
COc1cccc2c(NCc3ccccn3)nc(N3CCOc4ccccc43)nc12 [XII-7] | – | – | 19 ± 5 µM | 15 ± 4 µM | –
COc1cccc2c(NCc3ccccc3O)nc(N3CCOc4ccccc43)nc12 [XII-8] | – | – | 4.6 ± 1 µM | 6 ± 0.6 µM | –

Structure (SMILES) | IC50 (p97; p97 ATPase assay) | IC50 [1, 2] | IC50 (p97; [3]) | IC50 [1, 4] | IC50 ([1]; read-out: IC50 (μM) Ub^G76V-GFP turn over)
COc1cccc2c(NCc3ccccc3N(C)C)nc(N3CCOc4ccccc43)nc12 [XII-9] | 47 ± 22 µM | 4.5 ± 0.5 µM | – | – | –
COc1cccc2c(NCc3ccc(O)cc3)nc(N3CCOc4ccccc43)nc12 [XII-10] | – | – | 2.4 ± 0.5 µM | 7.3 ± 1 µM | –
COc1cccc2c(N3CCOc4ccccc43)nc(N3CCOc4ccccc43)nc12 [XII-11] | > 30 µM | 8.1 ± 1.8 µM | – | – | –
Nc1nc(CCl)nc(N(c2ccccc2)c2ccccc2)n1 [XIII] | – | – | 13 ± 5 µM | 10 ± 2 µM | –
CC(C)c1ccc(Nc2nc(N)nc(CCl)n2)cc1 [XIV] | – | – | 15 ± 5 µM | 14 ± 2.4 µM | –
CCc1nc2ccccc2n1CC(=O)OCC(=O)C(C#N)=C1Nc2ccccc2N1 [XIX] | – | – | 14 ± 6 µM | 7.2 ± 1.1 µM | –
CC(C)Nc1nc(Nc2cccc(Cl)c2)nc2ccccc12 [XLII] | > 30 µM | 11 ± 2 µM | – | – | –
COc1ccc(Nc2nc(N3CCN(c4ccc([N+](=O)[O-])cc4)CC3)nc3ccccc23)c(OC)c1 [XLIX] | 43 ± 13 µM | 70 ± 16 µM | – | – | –
COc1ccc(Nc2nc(N3CCN(S(=O)(=O)c4ccc(C)cc4)CC3)nc3ccccc23)cc1 [XLVIII] | 22 ± 12 µM | 39 ± 18 µM | – | – | –
c1ccc(CNc2nc(N3CCN(c4ccccc4)CC3)nc3ccccc23)cc1 [XLVII] | 34 ± 11 µM | 35 ± 5 µM | – | – | –
CC(Nc1nc(N2CCOCC2)nc2ccccc12)c1ccccc1 (stereo not shown) [XLVI] | 34 ± 10 µM | 36 ± 0.3 µM | – | – | –
CN1CCN(c2nc(NCc3ccccc3)c3ccccc3n2)CC1 [XLV] | 53 ± 18 µM | 31 ± 6 µM | – | – | –
N#CC(C(=O)COC(=O)CCC(=O)c1ccc2c(c1)OCCO2)=C1Nc2ccccc2N1 [XVIII] | – | – | 10 ± 4 µM | 6.3 ± 0.6 µM | –
Nc1nc(CCl)nc(Nc2ccc(Cl)c(Cl)c2)n1 [XVII] | – | – | 15 ± 4 µM | 5.7 ± 0.8 µM | –
Cc1c(Cl)cccc1Nc1nc(N)nc(CCl)n1 [XVI] | – | – | 18 ± 8 µM | 5.9 ± 1 µM | –
Nc1nc(CCl)nc(Nc2ccc(Oc3ccccc3)cc2)n1 [XV] | – | – | 14 ± 5 µM | 3.7 ± 0.6 µM | –
COc1cccc2c(NCc3ccccc3)nc(-n3c(N)nc4cc(C)c(C)cc43)nc12 [XXI-1] | 2 ± 0.4 µM | 89 ± 39 µM | – | – | –
c1ccc(CNc2nc(N3CCN(Cc4ccccc4)CC3)nc3ccccc23)cc1 [XXIII] | 33 ± 8 µM | 12 ± 1 µM | – | – | –
Clc1ccccc1-c1nc(N2CCCc3ccccc32)c2ccccc2n1 [XXIV] | > 30 µM | 11 ± 0.8 µM | – | – | –
COc1ccc(Nc2nc(Nc3ccc(OC)cc3)c3ccccc3n2)cc1 [XXV-1] | 22 ± 4 µM | – | – | – | 23 ± 3 µM
